In PMC7394103 (Frontiers in Pharmacology, 2020):

Experiments:
[1] = system: MMP-1 secretion by FLS; experiment: IL-1β-induced MMP-1 secretion by FLS (ELISA); format: cell-based; conditions: Homo sapiens; 30 min compound, then 5 ng/ml IL-1β, 24 h
Description: This study was approved by the Institutional Review Board of University of California, San Diego School of Medicine (La Jolla, CA, USA). Informed consent was obtained from all participants. Anonymous synovial tissue samples were obtained from six patients with RA at the time of total joint replacement (5 females, 1 male; age range, 44–72 years), as previously described ([Alvaro-Gracia et al., 1990]). The diagnosis of RA conformed to American College of Rheumatology 1987 revised criteria ([Arnett et al., 1988]). The synovium was minced and incubated with collagenase type VIII (0.5 mg/ml) (Sigma-Aldrich) in serum-free RPMI-1640 (Life Technologies, Grand Island, NY, USA) for 2 h at 37°C, filtered, extensively washed, and cultured in DMEM (Life Technologies) supplemented with 10% FBS (Gemini Bio Products, Calabasas, CA, USA), penicillin, streptomycin, gentamicin, and glutamine in a humidified 5% CO2 atmosphere. […]
FLS, HUVEC, SW982, and THP-1 cells were plated in 96 well plates (10^4 to 10^5 cells/well) for 48 h before treatment. […] The levels of MMP-1 and MMP-3 were determined in culture supernatants using commercially available ELISA kits according to the manufacturer’s instructions (R&D System, Minneapolis, MN, USA). IL-6 levels were also determined in the supernatants using a human IL-6 ELISA kit (BD Biosciences, San Jose, CA, USA).

[2] = system: IL-6 secretion by monocytic THP-1 cells; experiment: IL-1β-induced IL-6 secretion by THP-1 cells (ELISA); format: cell-based; conditions: Homo sapiens, 30 min compound, then 5 ng/ml IL-1β, 24 h
Experimental: (§1) FLS, HUVEC, SW982, and THP-1 cells were plated in 96 well plates (10^4 to 10^5 cells/well) for 48 h before treatment. At 2 days post-confluency, the cells were serum-starved and washed twice (with the exception of THP-1 cell, which were not washed) with FBS-free medium prior to the addition of test compounds. The cells were incubated in the presence or absence of test compounds or DMSO (vehicle control) for 30 min at 37°C in a 5% CO2 atmosphere, IL-1β (5 ng/ml) was added, and the cells were incubated for an additional 24 h. Culture supernatants were collected and stored at –80°C. The levels of MMP-1 and MMP-3 were determined in culture supernatants using commercially available ELISA kits according to the manufacturer’s instructions (R&D System, Minneapolis, MN, USA). IL-6 levels were also determined in the supernatants using a human IL-6 ELISA kit (BD Biosciences, San Jose, CA, USA).

[3] = system: MMP3 gene expression in FLS; experiment: MMP3 gene expression in IL-1β-stimulated FLS (qPCR); format: cell-based, human; conditions: 4, 10, 25 µM, 1 h before IL-1β (2 ng/ml) for 6 h, vs vehicle
Experimental: For MMP mRNA analysis, FLS were plated in six-well plates, cultured until 80% confluence, and subsequently serum starved (1% FBS/DMEM) for 24 h. […] The mRNA was isolated and reverse transcribed to obtain cDNA. Quantitative real-time polymerase chain reaction was performed using primer probe sets for MMP3 and glyceraldehyde 3-phosphate dehydrogenase (GAPDH) (Life Technologies). Threshold cycle values were obtained and normalized to GAPDH expression.

[4] = system: CAIA in BALB/c mice; experiment: Collagen-antibody-induced arthritis (CAIA), clinical score and histopathology; format: in vivo; conditions: for CAIA joint histopathology / severity of CAIA (mean arthritis score): 30 mg/kg i.p. daily; for CAIA joint histopathology: day 1 to 9, vs saline; for severity of CAIA (mean arthritis score): day 1 to 9, vs vehicle; for therapeutic effect in CAIA compared to IQ-1S: 30 mg/kg i.p., days 6 and 7
Experimental: CAIA was induced in 7- to 8-week-old BALB/c mice from Charles River Laboratories (Wilmington, MA, USA) by i.p. injection of a cocktail of monoclonal anti-CII antibodies (Chondrex; 1.5 mg/mouse) on day 0, followed by i.p. lipopolysaccharide (LPS) injection (30 μg LPS from Escherichia coli strain 0111:B4 in PBS) on day 3. Control animals received an equal volume of PBS.
Arthritis development was evaluated daily for 10 days post-injection of the monoclonal antibody cocktail. Arthritis symptoms were scored on scale of 0 to 4 in accordance with the Chondrex Mouse Arthritis Scoring System in a blinded manner, as follows: 0, no signs of inflammation; 1, mild redness or swelling of single joint (one of the interphalangeal joints, metacarpophalangeal joints, carpal joint for the front paw, and tarsal joint for the hind); 2, two joints have redness and swelling; 3, all three joint types have redness and swelling; 4, maximal redness and swelling of entire paw leads to the disappearance of anatomical definition.
In CAIA, animals were sacrificed on day 14, and their forward and hind limbs were processed as described above. Three sections in the sagittal projection of joints, 40 µm apart, were examined by the same system with the grades ranging 0 to 4. Total H&E histopathological score for three sections included cartilage destruction, pannus formation, and synovial cells changes. For cartilage destruction, the scale was: 0—normal, superficial zone is smooth; 1—superficial fibrillations, some loss of surface lamina; 2—vertical clefts/erosion to the calcified cartilage up to 25% of the surface; 3—vertical clefts/erosion to the calcified cartilage 25% to 50% of the surface, 4—vertical clefts/erosion to the calcified cartilage more than 50% of the surface, severe chondrocytes, and cartilage matrix loss with new bone tissue substitution. For pannus formation the scale was: 0—normal; 1—exudate in the joint; 2—single inflammatory cells in the exudate; 3—mild infiltration of the inflammatory cells; 4—heavy inflammatory infiltration and debris in the joint. For synovial membrane changes the scale was: 0 – normal, 1 to 2 layer of synovial lining cells; 1—initial hyperplasia of the cells and increased number of lining cells layers; 2—increased number of lining cell layers, more than 3 to 4 layers and/or proliferation of sub-synovial tissue; 3—more than 4 layers of lining cells, focal infiltration of inflammatory cells, proliferation of subsynovial tissue; 4—more than four layers of lining cells, diffused infiltration of inflammatory cells, proliferation of sub-synovial tissue.

[5] = system: IL-6 secretion by synovial SW982 cells; experiment: IL-1β-induced IL-6 secretion by SW982 cells (ELISA); format: cell-based, human; conditions: for IC50: Homo sapiens, SW982, 30 min compound, then 5 ng/ml IL-1β, 24 h, read-out: SW982 IL-6 IC50
Experimental: as §1, with “The cells were incubated in the presence or absence of test compounds or DMSO (vehicle control) for 30 min at 37°C in a 5% CO2 atmosphere, IL-1β (5 ng/ml) was added, and the cells were incubated for an additional 24 h.” left out

O=c1c2ccccc2nc2n1-c1ccccc1/C2=N/O [TRYP-Ox, tryptanthrin-6-oxime]
IC50 [1]: 700 ± 100 nM
IC50 [2]: 300 ± 120 nM
MMP3 mRNA levels [3]: dose-dependent reduction
CAIA joint histopathology [4]: little cartilage erosion, synovial hyperplasia, or cellular infiltration
severity of CAIA (mean arthritis score) [4]: significant reductions in the severity of CAIA
therapeutic effect in CAIA compared to IQ-1S [4]: significantly greater
IC50 [5]: 400 ± 200 nM

O=C1c2ccccc2-n2c1nc1ccccc1c2=O [TRYP, indolo[2,1-b]quinazolin-6,12-dione]
IC50 [1]: 1200 ± 400 nM
IC50 [2]: 9300 ± 2700 nM
MMP3 mRNA levels [3]: dose-dependent reduction
CAIA joint histopathology [4]: little cartilage erosion, synovial hyperplasia, or cellular infiltration
severity of CAIA (mean arthritis score) [4]: significant reductions in the severity of CAIA
therapeutic effect in CAIA compared to IQ-1S [4]: significantly greater
overall inhibition of IL-6 secretion in combination with SP600125 ([5]; 5 µM TRYP plus SP600125, compared to SP600125 alone): acted synergistically
IC50 [5]: 2500 ± 1100 nM
